Target: Glycogen synthase kinase-3 beta (Homo sapiens, UniProt P49841)
Test: Biochemical Assay: The ingredients required for this purpose are mixed in a black 384-well microtiter plate with transparent base (from Greiner, catalog number 781092). The requirements in this connection for each well of the 384-well microtiter plate are 5 nM GSK3β (from Upstate, catalog number xy), 40 μM GSK3β substrate GSM (sequence H-RRRPASVPPSPSLSRHS-(pS)-HQRR, from Upstate, catalog number 2-533), 30 μM nicotinamide adenine dinucleotide NADH (Roche Diagnostics, catalog number 10107735), 50 μM adenosine triphosphate ATP (from Sigma, catalog number A7966) and 2 mM phosphoenolpyruvate (from Roche, catalog number 128112). The required reaction buffer in which the biochemical reaction takes place consists of 50 mM Trizma hydrochloride Tris-HCl pH: 7.5 (from Sigma, catalog number T3253), 5 mM magnesium chloride MgCl2 (from Sigma, catalog number M8266), 0.2 mM DL-dithiothreitol DTT (from Sigma, catalog number D9779), 2 mM ethylenediaminetetraacetic acid EDTA (from Sigma, catalog number E6758), 0.01% Triton X-100 (from Sigma, catalog number T8787) and 0.05% bovine serum albumin BSA (from Sigma, catalog number B4287). Active substances are dissolved in dimethyl sulfoxide DMSO (from Sigma, catalog number D8418) in a concentration of 10 mM. […]

Sequence of Glycogen synthase kinase-3 beta (P49841 whole entry): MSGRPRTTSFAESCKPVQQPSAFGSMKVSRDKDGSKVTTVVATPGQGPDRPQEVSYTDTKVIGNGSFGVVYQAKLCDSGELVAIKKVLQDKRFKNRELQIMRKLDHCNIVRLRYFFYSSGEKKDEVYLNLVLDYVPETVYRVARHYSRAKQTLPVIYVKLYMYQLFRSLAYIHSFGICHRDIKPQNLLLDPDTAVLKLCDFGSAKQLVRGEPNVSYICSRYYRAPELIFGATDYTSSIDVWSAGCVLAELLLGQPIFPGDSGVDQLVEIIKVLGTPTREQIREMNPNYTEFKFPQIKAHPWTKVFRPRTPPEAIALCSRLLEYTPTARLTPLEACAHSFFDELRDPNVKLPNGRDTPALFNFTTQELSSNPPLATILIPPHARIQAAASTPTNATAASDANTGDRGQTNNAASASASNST

`N#Cc1sc(NCCNc2nc(-c3ccc(Cl)cc3Cl)cn3ccnc23)nc1N` was tested, and the IC50 was 16 nM.
